{"source": "patent US11446282B2", "about": "“Methods of treating mixed dyslipidemia and hypertriglycertdemia” (Kowa Company, Ltd., priority 2017, dated 2022)", "test_system": "dyslipidemic patients with renal impairment", "assay": "Example 3 phase III 52-week trial: cholesterol in lipoprotein subclasses by HPLC", "assay_type": "in vivo, human", "conditions": "0.2 (0.4) mg/day", "method": "This was a multicenter, single-arm, open-label, phase III trial. The inclusion criteria were as follows: (1) patients with dyslipidemia aged >20 years at the time of informed consent; (2) men and postmenopausal women; (3) fasting serum TG≥1.70 mmol/L (150 mg/dL) at two consecutive measurements during screening; and (4) patients who followed dietary and physical exercise guidance for >12 weeks before enrollment.\nThe major exclusion criteria were as follows: (1) patients with fasting serum TG≥5.65 mmol/L (500 mg/dL) during screening; (2) patients with poorly controlled diabetes mellitus (hemoglobin A1c [HbA1c]≥10.5%); (3) patients with concurrent poorly controlled thyroid disease; (4) men with serum creatinine ≥2.5 mg/dL and women with serum creatinine ≥2.0 mg/dL during screening who were already on statin therapy; (5) patients with eGFR<45 mL/min/1.73 m^2 during screening who were already on statin therapy; (6) patients with CK>5ULN (270 IU/L for men, 150 IU/L for women) during screening who were already on statin therapy; (7) patients with serious liver disease (cirrhosis Child-Pugh Class B or higher); (8) patients with gallstones or serious biliary tract disease; (9) patients who had suffered an acute myocardial infarction or stroke within three months before informed consent; and (10) patients with New York Heart Association class III or IV heart failure.\nDuring the screening period (8 weeks prior to treatment initiation), tests were performed twice to determine patient eligibility. Thereafter, eligible patients orally received pemafibrate 0.2 mg/day (twice daily) for 52 weeks. From week 12 of the treatment period onwards, the investigators were instructed that the dose could be increased from 0.2 mg/day to 0.4 mg/day (twice daily) if there was an inadequate response to the initial dose based on fasting serum TG levels ≥1.70 mmol/L (150 mg/dL). Fasting blood and urine samples were collected at each visit. Blood and urine sample in patients with hemodialysis were collected just before dialysis. LDL-C levels were measured using the direct method. […]\nThe primary efficacy endpoint was the percent change in fasting serum TG from baseline to the last evaluation point. The primary safety endpoints were the incidence of an AE or ADR occurring after drug administration during the study. Secondary efficacy endpoints included percent changes in lipid variables and changes in inflammation variables at week 52 [using the last-observation-carried-forward (LOCF)]. Secondary safety endpoints included changes in the levels of aspartate aminotransferase (AST), ALT, -GT, ALP, serum creatinine, eGFR, and CK at week 52. Each baseline value was defined as (1) the mean of the corresponding values in the first and second tests at the screening examination and at week 0 of the treatment period for fasting serum TG, HDL-C, total cholesterol (TC), LDL-C, and non-HDL-C; and (2) the value at week 0 of the treatment period for the other secondary variables.\nThe numbers of patients with AEs and ADRs and the incidences of AEs and ADRs were calculated in the analysis of primary safety endpoints. For the secondary efficacy endpoints, one-sample t-tests or Wilcoxon signed-rank tests [for high-sensitivity C-reactive protein (hsCRP) and IL-1] were performed. The secondary safety endpoints were analyzed with Wilcoxon signed-rank tests. A two-sided significance level of 0.05 was used. SAS v. 9.3 (SAS Institute Inc., Cary, N.C., USA) was used for these analyses. Where indicated, the data are expressed as means±standard deviation (SD).", "data": [{"smiles": "CC[C@@H](Oc1cccc(CN(CCCOc2ccc(OC)cc2)c2nc3ccccc3o2)c1)C(=O)O", "note": "[Pemafibrate, (2R)-2-[3-({1,3-benzoxazol-2-yl[3-(4-methoxyphenoxy)propyl]amino}methyl)phenoxy]butanoic acid]", "values": [{"measurement": "CM-C % Change from baseline at Week 52 (LOCF)", "setting": "All Participants", "value": "−64.3", "unit": "%"}, {"measurement": "CM-C Week 52 (LOCF)", "setting": "All Participants", "value": 0.039, "unit": "mmol/L"}, {"measurement": "Large HDL-C % Change from baseline at Week 52 (LOCF)", "setting": "All Participants", "value": "−9.2", "unit": "%"}, {"measurement": "Large HDL-C Week 52 (LOCF)", "setting": "All Participants", "value": 0.115, "unit": "mmol/L"}, {"measurement": "Large LDL-C % Change from baseline at Week 52 (LOCF)", "setting": "All Participants", "value": 63.1, "unit": "%"}, {"measurement": "Large LDL-C Week 52 (LOCF)", "setting": "All Participants", "value": 0.748, "unit": "mmol/L"}, {"measurement": "Medium HDL-C % Change from baseline at Week 52 (LOCF)", "setting": "All Participants", "value": 19.3, "unit": "%"}, {"measurement": "Medium HDL-C Week 52 (LOCF)", "setting": "All Participants", "value": 0.443, "unit": "mmol/L"}, {"measurement": "Medium LDL-C % Change from baseline at Week 52 (LOCF)", "setting": "All Participants", "value": 17.3, "unit": "%"}, {"measurement": "Medium LDL-C Week 52 (LOCF)", "setting": "All Participants", "value": 1.194, "unit": "mmol/L"}, {"measurement": "Small HDL-C % Change from baseline at Week 52 (LOCF)", "setting": "All Participants", "value": 24.2, "unit": "%"}, {"measurement": "Small HDL-C Week 52 (LOCF)", "setting": "All Participants", "value": 0.473, "unit": "mmol/L"}, {"measurement": "Small LDL-C % Change from baseline at Week 52 (LOCF)", "setting": "All Participants", "value": "−20.6", "unit": "%"}, {"measurement": "Small LDL-C Week 52 (LOCF)", "setting": "All Participants", "value": 0.517, "unit": "mmol/L"}, {"measurement": "VLDL-C % Change from baseline at Week 52 (LOCF)", "setting": "All Participants", "value": "−24.9", "unit": "%"}, {"measurement": "VLDL-C Week 52 (LOCF)", "setting": "All Participants", "value": 0.866, "unit": "mmol/L"}, {"measurement": "Very large HDL-C % Change from baseline at Week 52 (LOCF)", "setting": "All Participants", "value": 4.4, "unit": "%"}, {"measurement": "Very large HDL-C Week 52 (LOCF)", "setting": "All Participants", "value": 0.048, "unit": "mmol/L"}, {"measurement": "Very small HDL-C % Change from baseline at Week 52 (LOCF)", "setting": "All Participants", "value": 27.9, "unit": "%"}, {"measurement": "Very small HDL-C Week 52 (LOCF)", "setting": "All Participants", "value": 0.181, "unit": "mmol/L"}, {"measurement": "Very small LDL-C % Change from baseline at Week 52 (LOCF)", "setting": "All Participants", "value": "−11.6", "unit": "%"}, {"measurement": "Very small LDL-C Week 52 (LOCF)", "setting": "All Participants", "value": 0.210, "unit": "mmol/L"}, {"measurement": "CM-C % Change from baseline at Week 52 (LOCF)", "setting": "eGFR G1 (≥90)", "value": "−54.1", "unit": "%"}, {"measurement": "CM-C Week 52 (LOCF)", "setting": "eGFR G1 (≥90)", "value": 0.064, "unit": "mmol/L"}, {"measurement": "Large HDL-C % Change from baseline at Week 52 (LOCF)", "setting": "eGFR G1 (≥90)", "value": "−14.1", "unit": "%"}, {"measurement": "Large HDL-C Week 52 (LOCF)", "setting": "eGFR G1 (≥90)", "value": 0.107, "unit": "mmol/L"}, {"measurement": "Large LDL-C % Change from baseline at Week 52 (LOCF)", "setting": "eGFR G1 (≥90)", "value": 54.5, "unit": "%"}, {"measurement": "Large LDL-C Week 52 (LOCF)", "setting": "eGFR G1 (≥90)", "value": 0.724, "unit": "mmol/L"}, {"measurement": "Medium HDL-C % Change from baseline at Week 52 (LOCF)", "setting": "eGFR G1 (≥90)", "value": 11.4, "unit": "%"}, {"measurement": "Medium HDL-C Week 52 (LOCF)", "setting": "eGFR G1 (≥90)", "value": 0.441, "unit": "mmol/L"}, {"measurement": "Medium LDL-C % Change from baseline at Week 52 (LOCF)", "setting": "eGFR G1 (≥90)", "value": 15.5, "unit": "%"}, {"measurement": "Medium LDL-C Week 52 (LOCF)", "setting": "eGFR G1 (≥90)", "value": 1.244, "unit": "mmol/L"}, {"measurement": "Small HDL-C % Change from baseline at Week 52 (LOCF)", "setting": "eGFR G1 (≥90)", "value": 18.1, "unit": "%"}, {"measurement": "Small HDL-C Week 52 (LOCF)", "setting": "eGFR G1 (≥90)", "value": 0.482, "unit": "mmol/L"}, {"measurement": "Small LDL-C % Change from baseline at Week 52 (LOCF)", "setting": "eGFR G1 (≥90)", "value": "−18.0", "unit": "%"}, {"measurement": "Small LDL-C Week 52 (LOCF)", "setting": "eGFR G1 (≥90)", "value": 0.576, "unit": "mmol/L"}, {"measurement": "VLDL-C % Change from baseline at Week 52 (LOCF)", "setting": "eGFR G1 (≥90)", "value": "−24.6", "unit": "%"}, {"measurement": "VLDL-C Week 52 (LOCF)", "setting": "eGFR G1 (≥90)", "value": 0.932, "unit": "mmol/L"}, {"measurement": "Very large HDL-C % Change from baseline at Week 52 (LOCF)", "setting": "eGFR G1 (≥90)", "value": 0.8, "unit": "%"}, {"measurement": "Very large HDL-C Week 52 (LOCF)", "setting": "eGFR G1 (≥90)", "value": 0.047, "unit": "mmol/L"}, {"measurement": "Very small HDL-C % Change from baseline at Week 52 (LOCF)", "setting": "eGFR G1 (≥90)", "value": 20.6, "unit": "%"}, {"measurement": "Very small HDL-C Week 52 (LOCF)", "setting": "eGFR G1 (≥90)", "value": 0.186, "unit": "mmol/L"}, {"measurement": "Very small LDL-C % Change from baseline at Week 52 (LOCF)", "setting": "eGFR G1 (≥90)", "value": "−10.3", "unit": "%"}, {"measurement": "Very small LDL-C Week 52 (LOCF)", "setting": "eGFR G1 (≥90)", "value": 0.233, "unit": "mmol/L"}, {"measurement": "CM-C % Change from baseline at Week 52 (LOCF)", "setting": "eGFR G2 (≥60 and <90)", "value": "−63.9", "unit": "%"}, {"measurement": "CM-C Week 52 (LOCF)", "setting": "eGFR G2 (≥60 and <90)", "value": 0.038, "unit": "mmol/L"}, {"measurement": "Large HDL-C % Change from baseline at Week 52 (LOCF)", "setting": "eGFR G2 (≥60 and <90)", "value": "−10.9", "unit": "%"}, {"measurement": "Large HDL-C Week 52 (LOCF)", "setting": "eGFR G2 (≥60 and <90)", "value": 0.115, "unit": "mmol/L"}, {"measurement": "Large LDL-C % Change from baseline at Week 52 (LOCF)", "setting": "eGFR G2 (≥60 and <90)", "value": 67.7, "unit": "%"}, {"measurement": "Large LDL-C Week 52 (LOCF)", "setting": "eGFR G2 (≥60 and <90)", "value": 0.765, "unit": "mmol/L"}, {"measurement": "Medium HDL-C % Change from baseline at Week 52 (LOCF)", "setting": "eGFR G2 (≥60 and <90)", "value": 17.7, "unit": "%"}, {"measurement": "Medium HDL-C Week 52 (LOCF)", "setting": "eGFR G2 (≥60 and <90)", "value": 0.448, "unit": "mmol/L"}, {"measurement": "Medium LDL-C % Change from baseline at Week 52 (LOCF)", "setting": "eGFR G2 (≥60 and <90)", "value": 18.7, "unit": "%"}, {"measurement": "Medium LDL-C Week 52 (LOCF)", "setting": "eGFR G2 (≥60 and <90)", "value": 1.226, "unit": "mmol/L"}, {"measurement": "Small HDL-C % Change from baseline at Week 52 (LOCF)", "setting": "eGFR G2 (≥60 and <90)", "value": 23.6, "unit": "%"}, {"measurement": "Small HDL-C Week 52 (LOCF)", "setting": "eGFR G2 (≥60 and <90)", "value": 0.477, "unit": "mmol/L"}, {"measurement": "Small LDL-C % Change from baseline at Week 52 (LOCF)", "setting": "eGFR G2 (≥60 and <90)", "value": "−20.6", "unit": "%"}]}]}
